Data as given in article PMC5382172 (Frontiers in Molecular Neuroscience, 2017).
Substitutions are numbered along the chain they refer to. Names and notes keep the numbering of the source.

How the values were obtained:
GluClαF276A/βWT receptor = molecular target: T1, GluClαF276A/βWT receptor (Caenorhabditis elegans, UniProt G5EBR3+Q17328, F276A); assay: Whole-cell patch clamp in CHO cells, GluClαF276A/βWT receptor; type: cell-based
T1 construct: entry codes of the full-length subunits used in this study; expressed in transfected cells; host or cells: CHO cells, transient co-transfection, pcDNA3.1 (X-tremeGENE HP for the IVM-EC50 experiments)
T1 sequence (G5EBR3 21-461 F276A, one chain of several): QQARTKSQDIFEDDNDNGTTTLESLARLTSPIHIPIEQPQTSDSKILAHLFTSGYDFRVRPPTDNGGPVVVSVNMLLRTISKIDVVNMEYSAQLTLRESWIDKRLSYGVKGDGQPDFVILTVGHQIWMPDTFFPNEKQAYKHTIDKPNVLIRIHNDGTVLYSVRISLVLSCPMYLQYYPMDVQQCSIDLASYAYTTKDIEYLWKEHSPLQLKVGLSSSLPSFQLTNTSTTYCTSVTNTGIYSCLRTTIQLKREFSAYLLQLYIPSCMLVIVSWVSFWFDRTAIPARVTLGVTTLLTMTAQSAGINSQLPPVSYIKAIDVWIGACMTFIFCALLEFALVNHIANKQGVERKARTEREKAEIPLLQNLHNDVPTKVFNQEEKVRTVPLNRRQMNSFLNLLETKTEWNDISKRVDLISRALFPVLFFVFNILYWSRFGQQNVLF
Procedure: (§1) Chinese hamster ovary (CHO) cells were cultured as previously (Bar-Lev et al., [2011]) in Dulbecco’s Modified Eagle Medium (DMEM) containing 10% fetal calf serum, 2 mM glutamax, 100 Units/ml penicillin G and 100 μg/ml streptomycin, and grown in 5% CO2 at 37°C under 90%–95% humidity. The cells were seeded on glass coverslips (13-mm diameter) placed in a 24-multiwell plate. […] For the expression of GluCl receptors, cells were transiently co-transfected with pcDNA3.1 plasmids containing the ORFs of interest using transit-LT1 transfection reagent (Mirus, Madison, WI, USA), according to the manufacturer’s protocol. The cDNAs encoding the C. elegans GluClα (GLC-1) or its mutated versions and the GluClβ (GLC-2) subunits (200–600 ng per well) were used at 1:1 ratio. The pIRES-CD8 plasmid (200 ng per well) was added to enable the visualization of the expressing cells by beads coated with anti-CD8 antibodies (Invitrogen). For high-level expression of the GluClαF276A/βWT mutant receptor in experiments assigned to determine its IVM-EC50, we used the X-tremeGENE HP DNA Transfection Reagent (Roche Life Science). Recordings were performed 72–96 h following the transfection.
(§2) Whole-cell patch clamp recordings were performed as described previously (Bar-Lev et al., [2011]) in CHO cells that were prepared as detailed above. The normal external solution (NES) contained (in millimolar): 140 NaCl, 2.8 KCl, 2 CaCl2, 2 MgCl2, 10 glucose and 10 HEPES, adjusted to pH 7.35 with NaOH (310 mOsm/L). The pipette solution contained (in millimolar): 130 KCl, 4 MgCl2, 4 Na2ATP, 1 EGTA and 10 HEPES, adjusted to pH 7.35 with KOH (290 mOsm/L). The osmolarity of these solutions was maintained by adding sucrose. The electrode resistance was 6–10 MΩ when filled with the pipette solution. External solutions were applied onto the cell by using the VC-77SP fast-step system (Warner Instruments, Hamden, CT, USA) combined with N2 pressure of 3–4 psi to produce laminar flow of the external solution onto the patched cell. All measurements were performed at room temperature. The currents were measured with an Axopatch 200B patch-clamp amplifier (Molecular Devices, Sunnyvale, CA, USA) and a Digidata 1440A interface (Molecular Devices). Acquisition of recording data was performed at 2.5 kHz and recordings were low-pass filtered at 1 kHz, through a four-pole Bessel filter. The pClamp 10 software (Molecular Devices) was used for data acquisition. […] Five-hundred milliseconds after the application started (which is also after the current reached to its peak at −60 mV), the voltage was stepped from −60 mV to −80 mV for 50 ms followed by a 250-ms-long voltage ramp ranging from −80 mV to +80 mV.
(§3) Dose-response curves were fitted to the data points by a nonlinear regression using the Hill Equation 1,

[1] = molecular target: T2, GluClαWT (GLC-1) homomeric receptor (Caenorhabditis elegans, UniProt G5EBR3); design: method as in Degani-Katzav et al., [2016]; conditions: CHO cells, αWT alone; ref Degani-Katzav et al., [2016]; cited from earlier work
T2 construct: entry codes of the full-length subunits used in this study; expressed in transfected cells; host or cells: CHO cells, transient transfection, pcDNA3.1
T2 sequence (G5EBR3 21-461): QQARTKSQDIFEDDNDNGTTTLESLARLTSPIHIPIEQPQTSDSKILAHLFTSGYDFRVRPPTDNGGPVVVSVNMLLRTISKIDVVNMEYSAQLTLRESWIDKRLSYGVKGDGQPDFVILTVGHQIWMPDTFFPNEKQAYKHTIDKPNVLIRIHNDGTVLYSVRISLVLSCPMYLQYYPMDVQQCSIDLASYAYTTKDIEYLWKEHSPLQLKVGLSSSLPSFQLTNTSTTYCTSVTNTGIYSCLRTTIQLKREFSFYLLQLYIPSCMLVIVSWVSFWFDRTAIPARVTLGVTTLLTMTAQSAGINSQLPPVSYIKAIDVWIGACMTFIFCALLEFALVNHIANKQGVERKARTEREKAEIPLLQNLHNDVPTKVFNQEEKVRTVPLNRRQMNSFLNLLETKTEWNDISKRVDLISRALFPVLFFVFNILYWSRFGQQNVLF

GluClαE273R/βWT receptor = molecular target: T3, GluClαE273R/βWT receptor (Caenorhabditis elegans, UniProt G5EBR3+Q17328, E273R); assay: Whole-cell patch clamp in CHO cells, GluClαE273R/βWT receptor; type: cell-based; conditions: +60 mV
T3 construct: entry codes of the full-length subunits used in this study; expressed in transfected cells; host or cells: CHO cells, transient co-transfection 1:1, pcDNA3.1
T3 sequence (G5EBR3 21-461 E273R, one chain of several): as the sequence (G5EBR3 21-461 F276A, one chain of several) above, with E253R, A256F counted along it
Procedure: as §1, with “For high-level expression of the GluClαF276A/βWT mutant receptor in experiments assigned to determine its IVM-EC50, we used the X-tremeGENE HP DNA Transfection Reagent (Roche Life Science). Recordings were performed 72–96 h following the transfection.” left out
(§4) Whole-cell patch clamp recordings were performed as described previously (Bar-Lev et al., [2011]) in CHO cells that were prepared as detailed above. […] The currents were measured with an Axopatch 200B patch-clamp amplifier (Molecular Devices, Sunnyvale, CA, USA) and a Digidata 1440A interface (Molecular Devices). […]

[2] = molecular target: T4, GluClβWT (GLC-2) homomeric receptor (Caenorhabditis elegans, UniProt Q17328); conditions: CHO cells, βWT alone, ref Degani-Katzav et al., cited from earlier work
T4 construct: entry codes of the full-length subunits used in this study; expressed in transfected cells; host or cells: CHO cells, transient transfection, pcDNA3.1
T4 sequence (Q17328 23-434): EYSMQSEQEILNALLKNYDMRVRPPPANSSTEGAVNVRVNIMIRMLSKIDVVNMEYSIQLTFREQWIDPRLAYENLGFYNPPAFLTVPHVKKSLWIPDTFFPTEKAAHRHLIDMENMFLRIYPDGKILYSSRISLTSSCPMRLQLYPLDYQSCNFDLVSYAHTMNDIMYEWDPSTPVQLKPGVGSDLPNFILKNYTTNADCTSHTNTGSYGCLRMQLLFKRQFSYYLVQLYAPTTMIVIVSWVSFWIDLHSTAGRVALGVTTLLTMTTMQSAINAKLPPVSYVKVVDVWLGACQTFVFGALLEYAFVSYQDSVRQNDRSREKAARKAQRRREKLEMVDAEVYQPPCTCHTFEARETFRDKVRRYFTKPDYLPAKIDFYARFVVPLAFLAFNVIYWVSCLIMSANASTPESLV

GluClαP192E/βWT receptor = molecular target: T5, GluClαP192E/βWT receptor (Caenorhabditis elegans, UniProt G5EBR3+Q17328, P192E); assay: Whole-cell patch clamp in CHO cells, GluClαP192E/βWT receptor; type: cell-based; conditions: +60 mV
T5 construct: entry codes of the full-length subunits used in this study; expressed in transfected cells; host or cells: CHO cells, transient co-transfection 1:1, pcDNA3.1
T5 sequence (G5EBR3 21-461 P192E, one chain of several): as the sequence (G5EBR3 21-461 F276A, one chain of several) above, with P172E, A256F counted along it
Procedure: as §1, with “For high-level expression of the GluClαF276A/βWT mutant receptor in experiments assigned to determine its IVM-EC50, we used the X-tremeGENE HP DNA Transfection Reagent (Roche Life Science). Recordings were performed 72–96 h following the transfection.” left out
as §4

GluClαP192Y/βWT receptor = molecular target: T6, GluClαP192Y/βWT receptor (Caenorhabditis elegans, UniProt G5EBR3+Q17328, P192Y); assay: Whole-cell patch clamp in CHO cells, GluClαP192Y/βWT receptor; type: cell-based; conditions: +60 mV
T6 construct: entry codes of the full-length subunits used in this study; expressed in transfected cells; host or cells: CHO cells, transient co-transfection 1:1, pcDNA3.1
T6 sequence (G5EBR3 21-461 P192Y, one chain of several): as the sequence (G5EBR3 21-461 F276A, one chain of several) above, with P172Y, A256F counted along it
Procedure: as §1, with “For high-level expression of the GluClαF276A/βWT mutant receptor in experiments assigned to determine its IVM-EC50, we used the X-tremeGENE HP DNA Transfection Reagent (Roche Life Science). Recordings were performed 72–96 h following the transfection.” left out
as §4

GluClαWT/βWT receptor [3] = molecular target: T7, GluClαWT/βWT receptor (Caenorhabditis elegans, UniProt G5EBR3+Q17328); assay: Whole-cell patch clamp in CHO cells, GluClαWT/βWT receptor; type: cell-based
T7 construct: entry codes of the full-length subunits used in this study; expressed in transfected cells; host or cells: CHO cells, transient co-transfection 1:1, pcDNA3.1
T7 sequence (G5EBR3 21-461): T2 sequence (G5EBR3 21-461)
T7 sequence (Q17328 23-434): T4 sequence (Q17328 23-434)
Procedure: as §1, §2, §3

[4] = molecular target: T8, GluClα[SSS→GSD]/βWT receptor (Caenorhabditis elegans, UniProt G5EBR3+Q17328, S236G/S238D); assay: Whole-cell patch clamp in CHO cells, GluClα[SSS→GSD]/βWT receptor; type: cell-based; conditions: +60 mV
T8 construct: entry codes of the full-length subunits used in this study; expressed in transfected cells; host or cells: CHO cells, transient co-transfection 1:1, pcDNA3.1
T8 sequence (G5EBR3 21-461 S236G/S238D, one chain of several): as the sequence (G5EBR3 21-461 F276A, one chain of several) above, with S216G, S218D, A256F counted along it
Procedure: as §1, with “For high-level expression of the GluClαF276A/βWT mutant receptor in experiments assigned to determine its IVM-EC50, we used the X-tremeGENE HP DNA Transfection Reagent (Roche Life Science). Recordings were performed 72–96 h following the transfection.” left out
as §4

GluClαY194R/βWT receptor = molecular target: T9, GluClαY194R/βWT receptor (Caenorhabditis elegans, UniProt G5EBR3+Q17328, Y194R); assay: Whole-cell patch clamp in CHO cells, GluClαY194R/βWT receptor; type: cell-based; conditions: +60 mV
T9 construct: entry codes of the full-length subunits used in this study; expressed in transfected cells; host or cells: CHO cells, transient co-transfection 1:1, pcDNA3.1
T9 sequence (G5EBR3 21-461 Y194R, one chain of several): as the sequence (G5EBR3 21-461 F276A, one chain of several) above, with Y174R, A256F counted along it
Procedure: as §1, with “For high-level expression of the GluClαF276A/βWT mutant receptor in experiments assigned to determine its IVM-EC50, we used the X-tremeGENE HP DNA Transfection Reagent (Roche Life Science). Recordings were performed 72–96 h following the transfection.” left out
as §4

GluClαP192M/βWT receptor = molecular target: T10, GluClαP192M/βWT receptor (Caenorhabditis elegans, UniProt G5EBR3+Q17328, P192M); assay: Whole-cell patch clamp in CHO cells, GluClαP192M/βWT receptor; type: cell-based; conditions: +60 mV
T10 construct: entry codes of the full-length subunits used in this study; expressed in transfected cells; host or cells: CHO cells, transient co-transfection 1:1, pcDNA3.1
T10 sequence (G5EBR3 21-461 P192M, one chain of several): as the sequence (G5EBR3 21-461 F276A, one chain of several) above, with P172M, A256F counted along it
Procedure: as §1, with “For high-level expression of the GluClαF276A/βWT mutant receptor in experiments assigned to determine its IVM-EC50, we used the X-tremeGENE HP DNA Transfection Reagent (Roche Life Science). Recordings were performed 72–96 h following the transfection.” left out
as §4

GluClαF276W/βWT receptor = molecular target: T11, GluClαF276W/βWT receptor (Caenorhabditis elegans, UniProt G5EBR3+Q17328, F276W); assay: Whole-cell patch clamp in CHO cells, GluClαF276W/βWT receptor; type: cell-based; conditions: +60 mV
T11 construct: entry codes of the full-length subunits used in this study; expressed in transfected cells; host or cells: CHO cells, transient co-transfection 1:1, pcDNA3.1
T11 sequence (G5EBR3 21-461 F276W, one chain of several): as the sequence (G5EBR3 21-461 F276A, one chain of several) above, with A256W counted along it
Procedure: as §1, with “For high-level expression of the GluClαF276A/βWT mutant receptor in experiments assigned to determine its IVM-EC50, we used the X-tremeGENE HP DNA Transfection Reagent (Roche Life Science). Recordings were performed 72–96 h following the transfection.” left out
as §4

GluClαWT/βWT receptor [5] = molecular target: T7, GluClαWT/βWT receptor; design: method as in Degani-Katzav et al., [2016]; conditions: CHO cells co-transfected with WT α and β subunits; ref Degani-Katzav et al., [2016]; cited from earlier work
[6] = molecular target: T12, C. elegans GluClβWT subunit (GLC-2) (C. elegans) (UniProt Q17328)
T12 sequence: T4 sequence (Q17328 23-434)

## N[C@@H](CCC(=O)O)C(=O)O [Glu, glutamate]
GluClαF276A/βWT receptor; 1 mM Glu
  receptor population activated: ~ 5%
GluClαF276A/βWT receptor; CHO cells, +60 mV
  Glu activation properties nH (Hill coefficient): 1.3 ± 0.1
GluClαF276A/βWT receptor; pre-exposure to 50 nM IVM
  Hill coefficient of activation by Glu after pre-exposure to IVM: 1.5 ± 0.03
[1]
  response to 10 mM Glu: very weak responses
GluClαE273R/βWT receptor
  Glu activation properties nH (Hill coefficient): 1.5 ± 0.1
[2]; X-tremeGENE HP transfection, [2017]
  cells responding to 100 mM Glu: 4 of 46
[2]; [2016]
  response to 10 mM Glu: very weak, rare responses
GluClαP192E/βWT receptor
  Glu activation properties nH (Hill coefficient): 1.5 ± 0.1
GluClαP192Y/βWT receptor
  Glu activation properties nH (Hill coefficient): 1.5 ± 0.1
GluClαWT/βWT receptor [3]; 0.3 mM Glu, calculated from the Glu dose-response curve
  receptor population activated: ~ 7%
GluClαWT/βWT receptor [3]; CHO cells, +60 mV
  Glu activation properties nH (Hill coefficient): 1.6 ± 0.1
GluClαWT/βWT receptor [3]; pre-exposure to 7 nM IVM
  Hill coefficient of activation by Glu after pre-exposure to IVM: 1.2 ± 0.07
[4]
  Glu activation properties nH (Hill coefficient): 1.3 ± 0.1
GluClαY194R/βWT receptor
  Glu activation properties nH (Hill coefficient): 1.5 ± 0.1
GluClαP192M/βWT receptor
  Glu activation properties nH (Hill coefficient): 1.6 ± 0.1
GluClαF276W/βWT receptor
  Glu activation properties nH (Hill coefficient): 1.5 ± 0.1
GluClαWT/βWT receptor [5]
  response to Glu: robust responses

B1: C. elegans GluClα (GLC-1) subunit, P192E (receptor)
chain: T2 sequence (G5EBR3 21-461) with P172E
[6]
  whole-cell current amplitude in response to the Glu-EC50 concentration, CHO cells co-transfected with both subunits, +60 mV: 3.1 nA

B2: C. elegans GluClα (GLC-1) subunit, Y194R (receptor)
chain: T2 sequence (G5EBR3 21-461) with Y174R
[6]
  whole-cell current amplitude in response to the Glu-EC50 concentration, CHO cells co-transfected with both subunits, +60 mV: 5.9 nA

B3: C. elegans GluClα (GLC-1) subunit, E273R (receptor)
chain: T2 sequence (G5EBR3 21-461) with E253R
[6]
  whole-cell current amplitude in response to the Glu-EC50 concentration, CHO cells co-transfected with both subunits, +60 mV: 2.2 nA
